How the values were obtained:
Type in all cases: cell-based
Fusarium graminearum = details: compound identified in active HPLC fraction; active when halo diameter superior to 5 mm
Zymoseptoria tritici = system: Zymoseptoria tritici
Puccinia striiformis = Puccinia striiformis liquid-based screening assay of extract fractions; details: compound identified in active HPLC fraction; active when percentage of inhibition superior to 50%

| Compound | Active against: (Fusarium graminearum) | Active against: (Zymoseptoria tritici) | Active against: (Puccinia striiformis) |
| --- | --- | --- | --- |
| CCCCCCCCCCCCCC(=O)NCCC[N+](C)(C)CC(=O)[O-] [N-Myristylamidopropyl-N,N-dimethylbetaine] | F. graminearum | Z. tritici | P. striiformis |
| C[C@@H]1C/C=C/C=C/C=C/C=C/[C@H](O[C@@H]2O[C@H](C)[C@@H](O)[C@H](N)[C@@H]2O)C[C@@H]2O[C@](O)(C[C@@H](O)C[C@H]3O[C@@H]3/C=C/C(=O)O1)C[C@H](O)[C@H]2C(=O)O [Pimaricin/Natamycin, Pimaricin, reference compound] | F. graminearum | Z. tritici | P. striiformis |
| C=C/C(C)=C/[C@H](C)C(=O)C[C@H](O)CC1CC(=O)NC(=O)C1 [Streptimidone] | F. graminearum | Z. tritici | P. striiformis |
| Albofungin | F. graminearum | Z. tritici | P. striiformis |
| Enactin Ia/Ib | F. graminearum | Z. tritici | P. striiformis |
| Lauramidopropyl betaine | F. graminearum | Z. tritici | P. striiformis |

Reference: patent US20260083134A1, “MEANS AND METHODS FOR CONTROLLING PATHOGENS AND PESTS IN PLANTS” (APHEA.BIO NV, priority 2020, published 2026)
